Test results taken from paper PMC9574929, “Development of Hydrogen Sulfide-Releasing Carbonic Anhydrases IX- and XII-Selective Inhibitors with Enhanced Antihyperalgesic Action in a Rat Model of Arthritis” (Journal of Medicinal Chemistry, 2022).
“Also recorded” adds a separate entry of the source.

Experiments:
hCA IX = hCA IX (Homo sapiens, UniProt Q16790); assay: Stopped-flow CO2 hydrase assay, hCA IX; conditions: selectivity index, ratio of KIs
Method: (§3) The uncatalyzed rates were determined in the same manner and subtracted from the total observed rates. Stock solutions of inhibitor (0.1 mM) were prepared in distilled-deionized water and dilutions up to 0.01 nM were done thereafter with the assay buffer. […] The inhibition constants were obtained by nonlinear least-squares methods using PRISM 3 and the Cheng–Prusoff equation, as reported earlier,[39] and represent the mean from at least three different determinations.

rats = assay: Toxicity and Irwin test; type: in vivo, rat; set-up: key to Irwin test: Spontaneous activity / Irwin test: Straightening reflex / Irwin test: Hypo-hyperthermia / Irwin test: Cleaning / Irwin test: Curiosity / Irwin test: Reactivity / Irwin test: Convulsions: observer's semiquantitative score (0 to +4, −4 to 0, or −4 to +4); conditions: 30 mg/kg; for Irwin test: Cyanosis / Irwin test: Exolphthalmos / Irwin test: Flush / Irwin test: Lacrimation / Irwin test: Pallor / Irwin test: Piloerection / Irwin test: Salivation / Irwin test: Writhing / Irwin test: Palpebral opening / Irwin test: Hypo-hyperthermia: Autonomic signes; for Irwin test: Cyanosis / Irwin test: Exolphthalmos / Irwin test: Flush / Irwin test: Lacrimation / Irwin test: Pallor / Irwin test: Piloerection / Irwin test: Salivation / Irwin test: Writhing / Irwin test: Passivity / Irwin test: Vocalization / Irwin test: Ataxia / Irwin test: Stereotipies / Irwin test: Straub tail / Irwin test: Tremors / Irwin test: Delayed death (48 h) / Irwin test: Immediate death: limits 0 - 4; for Irwin test: Palpebral opening / Irwin test: Cleaning / Irwin test: Curiosity / Irwin test: Reactivity / Irwin test: Spontaneous activity / Irwin test: Straightening reflex / Irwin test: Palpebral reflex / Irwin test: Convulsions: limits 4 - 0; for Irwin test: Hypo-hyperthermia: limits -4/+4; for Irwin test: Passivity / Irwin test: Vocalization / Irwin test: Cleaning / Irwin test: Curiosity / Irwin test: Reactivity / Irwin test: Spontaneous activity: Behaviour; for Irwin test: Ataxia / Irwin test: Stereotipies / Irwin test: Straightening reflex: Movement; for Irwin test: Physical strenght: Muscolar tone, limits 4 – 0; for Irwin test: Palpebral reflex: Reflexes; for Irwin test: Straub tail / Irwin test: Tremors / Irwin test: Convulsions: S.N.C. excitement; for Irwin test: Delayed death (48 h) / Irwin test: Immediate death: Toxicity
Method: Toxicity was evaluated after a single acute administration of 26, 29, 30, and 31 at 30 mg/kg. […] For the Irwin test, each rat was individually placed in a transparent cage (26 × 41 cm), and 26 neurobehavioral or physiological parameters were systematically assessed according to Irwin (1968)[55] and already reported by Berrino and colleagues in similar studies.[30] Behavioral, autonomic, and neurological manifestations produced by compound administration in rats were evaluated: motor displacement, motor reflexes, stereotypies, grooming, reaction to painful or environmental stimuli (analgesia and irritability), startle response, secretions, excretions, respiratory movements, skin color and temperature, piloerection, exophthalmos, eyelid and corneal reflexes, muscle tone, ataxia, tremors, head twitches, jumps, convulsions, Straub tail, and other signs or symptoms. For postural reflexes (righting reflex) and other signs such as piloerection, exophthalmia (exaggerated protrusion of the eyeball), ataxia, tremors, and Straub tail, only presence or absence was recorded. Skin color was evaluated qualitatively (pale, red, or purple); other signs were evaluated semiquantitatively, according to the observer’s personal scale (0 to +4, −4 to 0, or −4 to +4). The terms sedation and excitation express the final interpretation of a group of signs: reduced motor activity, reduced startle response, eyelid ptosis, and reduced response to manual manipulation, for the former; and increased motor activity, increased startle response, increased response to manual manipulation, and exophthalmia, for the latter. Hyperactivity includes running, jumping, and attempting to escape from the container. Trained observers were not informed about the specific treatment of each animal group carried out in this test.

[1] = system: rat model of arthritis induced by the intra-articular injection of complete Freund's adjuvant (CFA); assay: Paw pressure test, CFA-induced arthritis; type: in vivo
Method: (§1) Articular damage was induced by injection of Complete Freund’s Adjuvant (CFA; Sigma-Aldrich, St Louis, MO, USA), containing 1 mg/mL of heat-killed and dried Mycobacterium tuberculosis in paraffin oil and mannide monooleate, into the tibiotarsal joint.[50] Briefly, the rats were lightly anesthetized with 2% isoflurane, the left leg skin was sterilized with 75% ethyl alcohol, and the lateral malleolus was located by palpation. A 28-gauge needle was then inserted vertically to penetrate the skin and turned distally for insertion into the articular cavity at the gap between the tibiofibular and tarsal bone until a distinct loss of resistance was felt. A volume of 50 μL of CFA was then injected (day 0). Control rats received 50 μL of saline solution (day 0) in the tibiotarsal joint.
(§2) The hybrid derivatives 26, 29, 30, and 31 (1, 10, and 30 mg/kg) were suspended in a 1% solution of carboxymethylcellulose (CMC) sodium salt and acutely per os administered starting from day 14 after CFA i.a. injection, when arthritis was well established. The H2S releaser 3 and CAI 15 were also administered alone or in coadministration at the equimolar dose of compound 30 30 mg/kg (13.23 and 17.71 mg/kg, respectively). The antihypersensitivity effects were evaluated over time by the Paw pressure and Incapacitance tests.
The nociceptive threshold of rats was determined with an analgesimeter (Ugo Basile, Varese, Italy), according to the method described by Leighton et al.[51] and Maresca et al.,[52] (doi: 10.1111/jphp.12828). Briefly, a constantly increasing pressure was applied to a small area of the dorsal surface of the hind paw using a blunt conical probe by a mechanical device. Mechanical pressure was increased until vocalization or a withdrawal reflex occurred while rats were lightly restrained. Vocalization or withdrawal reflex thresholds were expressed in grams. […]

[2] = system: rat model of arthritis induced by the intra-articular injection of complete Freund's adjuvant (CFA); assay: Incapacitance test, CFA-induced arthritis; type: in vivo; conditions: for reduction of spontaneous pain, Incapacitance test: single per os, 1 to 30 mg/kg, day 14 after CFA
Method: as §1, §2
Weight-bearing changes were measured using an incapacitance apparatus (Linton Instrumentation, Norfolk, U.K.) to detect changes in postural equilibrium after a hind limb injury.[53],[54] Rats were trained to stand on their hind paws in a box with an inclined plane (65° from horizontal). This box was placed above the incapacitance apparatus. This allowed us to independently measure the weight that the animal applied on each hind limb. The value reported for each animal is the mean of five consecutive measurements. In the absence of hind limb injury, rats applied an equal weight on both hind limbs, indicating postural equilibrium, whereas an unequal distribution of weight on the hind limbs indicated a monolateral decreased pain threshold. Data are expressed as the difference between the weight applied to the limb contralateral to the injury and the weight applied to the ipsilateral limb (Δ weight).

hCA XII = hCA XII (Homo sapiens, UniProt O43570); assay: Stopped-flow CO2 hydrase assay, hCA XII; conditions: selectivity index, ratio of KIs
Chain of hCA XII (O43570 25-354): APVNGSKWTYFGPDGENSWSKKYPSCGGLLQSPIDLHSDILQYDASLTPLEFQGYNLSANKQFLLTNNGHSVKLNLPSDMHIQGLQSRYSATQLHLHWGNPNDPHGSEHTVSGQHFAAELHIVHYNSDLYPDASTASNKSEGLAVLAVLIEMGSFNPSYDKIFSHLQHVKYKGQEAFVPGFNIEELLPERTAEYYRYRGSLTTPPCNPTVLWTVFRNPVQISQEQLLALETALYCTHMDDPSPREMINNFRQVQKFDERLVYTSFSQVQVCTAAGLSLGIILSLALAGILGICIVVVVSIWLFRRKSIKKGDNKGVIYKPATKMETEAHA
Method: as §3

hCA IV = hCA IV (Homo sapiens, UniProt P22748); assay: Stopped-flow CO2 hydrase assay, hCA IV; conditions: selectivity index, ratio of KIs
Chain of hCA IV (P22748 19-312): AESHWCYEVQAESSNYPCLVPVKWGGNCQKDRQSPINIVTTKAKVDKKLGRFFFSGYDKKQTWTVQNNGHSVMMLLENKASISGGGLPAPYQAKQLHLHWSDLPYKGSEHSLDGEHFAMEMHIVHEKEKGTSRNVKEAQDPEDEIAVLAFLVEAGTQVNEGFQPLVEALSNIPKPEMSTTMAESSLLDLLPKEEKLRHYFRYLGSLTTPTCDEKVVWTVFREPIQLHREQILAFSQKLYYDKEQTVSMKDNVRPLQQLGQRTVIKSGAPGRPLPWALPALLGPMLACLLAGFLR
Method: as §3

hCA I = hCA I (Homo sapiens, UniProt P00915); assay: Stopped-flow CO2 hydrase assay, hCA I
Chain of hCA I (P00915 whole entry): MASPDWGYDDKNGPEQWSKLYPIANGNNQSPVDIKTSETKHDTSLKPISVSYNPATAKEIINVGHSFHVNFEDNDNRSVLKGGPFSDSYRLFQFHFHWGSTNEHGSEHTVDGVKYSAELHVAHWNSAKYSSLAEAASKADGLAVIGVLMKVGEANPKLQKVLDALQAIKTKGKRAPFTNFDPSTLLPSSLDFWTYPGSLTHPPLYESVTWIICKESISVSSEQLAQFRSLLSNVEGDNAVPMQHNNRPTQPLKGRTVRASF
Method: as §3

Row | Compound | SI CA I/IX (hCA IX) | SI CA II/IX (hCA IX) | Irwin test: Cyanosis (rats) | Irwin test: Exolphthalmos (rats) | Irwin test: Flush (rats) | Irwin test: Lacrimation (rats) | Irwin test: Pallor (rats) | Irwin test: Piloerection (rats) | Irwin test: Salivation (rats) | Irwin test: Writhing (rats) | Irwin test: Palpebral opening (rats) | Irwin test: Hypo-hyperthermia (rats) | Irwin test: Passivity (rats) | Irwin test: Vocalization (rats) | Irwin test: Cleaning (rats) | Irwin test: Curiosity (rats) | SI CA I/XII (hCA XII) | SI CA II/XII (hCA XII) | SI CA I/IV (hCA IV) | SI CA II/IV (hCA IV) | further results
1 | COc1cc([N+](=O)[O-])ccc1CN(CCc1ccc(S(N)(=O)=O)cc1)C(=O)c1ccc(-c2cssc2=S)cc1 [Compound 26, N-(2-Methoxy-4-nitrobenzyl)-N-(4-sulfamoylphenethyl)-4-(3-thioxo-3H-1,2-dithiol-4-yl)benzamide] | 1633 | 719 | 0 | 0 | 0 | 0 | 0 | 0 | 0 | 0 | 4 | 0 | 0 | 0 | 0 | 4 | 870 | 383 | 1.6 | 0.7 | Irwin test: Reactivity (rats): 4; Irwin test: Spontaneous activity (rats): 4; Irwin test: Ataxia (rats): 0; Irwin test: Stereotipies (rats): 0; Irwin test: Straightening reflex (rats): 4; Irwin test: Physical strenght (rats): 4; Irwin test: Palpebral reflex (rats): 4; Irwin test: Straub tail (rats): 0; Irwin test: Tremors (rats): 0; Irwin test: Convulsions (rats): 0; Irwin test: Delayed death (48 h) (rats): 0; Irwin test: Immediate death (rats): 0; antihyperalgesic effect, Paw pressure test, 30 mg/kg ([1]; 30 mg/kg per os, day 14 after CFA): completely reverted the pain state 45 min after administration; also recorded: counteracted the mechanical hyperalgesia 45 min after injection; also recorded: completely reverting pain 45 min after treatment; antihypersensitivity effect, Paw pressure test ([1]; single per os, 1 to 30 mg/kg, day 14 after CFA): evoked an antihypersensitivity effect in a dose-dependent manner; antihyperalgesic action at 45 min, Incapacitance test ([2]; per os, 45 min after treatment): almost completely reverting spontaneous pain after 45 min; also recorded: completely reverting pain 45 min after treatment; reduction of spontaneous pain, Incapacitance test [2]: reduced spontaneous pain in a dose-dependent manner
2 | COc1ccc(CN(CCc2ccc(S(N)(=O)=O)cc2)C(=O)c2ccc(-c3cssc3=S)cc2)cc1OC [Compound 28, N-(3,4-Dimethoxybenzyl)-N-(4-sulfamoylphenethyl)-4-(3-thioxo-3H-1,2-dithiol-4-yl)benzamide] | 47.9 | 11.7 | – | – | – | – | – | – | – | – | – | – | – | – | – | – | 105 | 25.7 | 3.0 | 0.7 | Ki (hCA I): 771 to 890 nM; melting point: 183 to 184 °C
3 | CSc1ccc(CN(CCc2ccc(S(N)(=O)=O)cc2)C(=O)c2ccc(-c3cssc3=S)cc2)cc1 [Compound 29, N-(4-(Methylthio)benzyl)-N-(4-sulfamoylphenethyl)-4-(3-thioxo-3H-1,2-dithiol-4-yl)benzamide] | 156 | 209 | 0 | 0 | 0 | 0 | 0 | 0 | 0 | 0 | 4 | 0 | 0 | 0 | 0 | 4 | 858 | 1148 | 17.9 | 23.9 | Irwin test: Reactivity (rats): 4; Irwin test: Spontaneous activity (rats): 4; Irwin test: Ataxia (rats): 0; Irwin test: Stereotipies (rats): 0; Irwin test: Straightening reflex (rats): 4; Irwin test: Physical strenght (rats): 4; Irwin test: Palpebral reflex (rats): 4; Irwin test: Straub tail (rats): 0; Irwin test: Tremors (rats): 0; Irwin test: Convulsions (rats): 0; Irwin test: Delayed death (48 h) (rats): 0; Irwin test: Immediate death (rats): 0; antihyperalgesic effect, Paw pressure test, 1 mg/kg ([1]; 1 mg/kg per os): ineffective; weight tolerated on the ipsilateral paw, Paw pressure test, 10 and 30 mg/kg ([1]; 10 and 30 mg/kg per os, from 15 min up to 45 min after treatment, vs CFA-treated animals): significantly increased the weight tolerated; reduction of spontaneous pain, Incapacitance test [2]: reduced spontaneous pain in a dose-dependent manner
